Experimental data from ChEMBL document CHEMBL4622952, “Synthesis and biological evaluation of Schizandrin derivatives as tubulin polymerization inhibitors” (Bioorg Med Chem Lett, 2020).
Activity calls are given as the source filed them. No cut-off for these calls is given here.

Columns and labels:
HeLa = test: Antiproliferative activity against human HeLa cells assessed as reduction in cell viability measured after 48 hrs by MTT assay; format: functional, cell-based
DU-145 [1] = test: Antiproliferative activity against human DU145 cells assessed as reduction in cell viability measured after 48 hrs by MTT assay; format: functional, cell-based; details: for IC50: DU-145, 48 h
Homo sapiens = species: Homo sapiens; test: (§1) Antiproliferative activity against human RKOP3 cells assessed as reduction in cell viability measured after 48 hrs by MTT assay; format: functional, cell-based
[2] = as §1; format: functional, cell-based
HEK293 = test: Cytotoxicity against human HEK293 cells assessed as reduction in cell viability measured after 48 hrs by MTT assay; format: cell-based
A549 = test: Antiproliferative activity against human A549 cells assessed as reduction in cell viability measured after 48 hrs by MTT assay; format: functional, cell-based; details: for IC50: A549, 48 h
[3] = Induction of apoptosis in human RKOP3 cells assessed as live cells at 2 uM measured after 24 hrs by annexinV-FITC/propidium iodide staining based flow cytometry analysis (reference value: 98.19 %); format: functional
DU-145 [4] = test: Induction of apoptosis in human DU145 cells assessed as late apoptotic cells at 2.54 uM measured after 24 hrs by annexinV-FITC/propidium iodide staining based flow cytometry analysis (reference value: 0.05 %); format: functional
[5] = Induction of apoptosis in human RKOP3 cells assessed as late apoptotic cells at 2 uM measured after 24 hrs by annexinV-FITC/propidium iodide staining based flow cytometry analysis (reference value: 0.01 %); format: functional
[6] = Induction of apoptosis in human RKOP3 cells assessed as necrotic cells at 2 uM measured after 24 hrs by annexinV-FITC/propidium iodide staining based flow cytometry analysis (reference value: 0 %); format: functional
DU-145 [7] = test: Induction of apoptosis in human DU145 cells assessed as live cells at 2.54 uM measured after 24 hrs by annexinV-FITC/propidium iodide staining based flow cytometry analysis (reference value: 97.09 %); format: functional
DU-145 [8] = test: Induction of apoptosis in human DU145 cells assessed as early apoptotic cells at 2.54 uM measured after 24 hrs by annexinV-FITC/propidium iodide staining based flow cytometry analysis (reference value: 2.34 %); format: functional
DU-145 [9] = test: Induction of apoptosis in human DU145 cells assessed as necrotic cells at 2.54 uM measured after 24 hrs by annexinV-FITC/propidium iodide staining based flow cytometry analysis (reference value: 0.52 %); format: functional
[10] = Induction of apoptosis in human RKOP3 cells assessed as early apoptotic cells at 2 uM measured after 24 hrs by annexinV-FITC/propidium iodide staining based flow cytometry analysis (reference value: 1.8 %); format: functional
Tubulin (Homo sapiens) [11] = target: T1, Tubulin (Homo sapiens) (UniProt P68371+Q9H4B7+P0DPH7+P68366+Q13509+Q71U36+P04350+Q3ZCM7+P07437+P68363+Q9BQE3+Q6PEY2+Q13885+Q9BVA1+Q9BUF5); test: Inhibition of tubulin polymerization in human HeLa cells assessed as disruption of microtubule network at 10 uM measured after 24 hrs by immunofluorescence assay; format: cell-based
DU-145 [12] = test: Induction of apoptosis in human DU145 cells assessed as live cells at 5 uM measured after 48 hrs by annexinV-FITC/propidium iodide staining based flow cytometry analysis (reference value: 97.09 %); format: functional
DU-145 [13] = test: Cell cycle arrest in human DU145 cells assessed as accumulation at G0/G1 phase at 1.5 uM measured after 24 hrs by propidium iodide staining based flow cytometry analysis (reference value: 58.2 %); format: functional
DU-145 [14] = test: Induction of apoptosis in human DU145 cells assessed as late apoptotic cells at 1.5 uM measured after 48 hrs by annexinV-FITC/propidium iodide staining based flow cytometry analysis (reference value: 0.05 %); format: functional
DU-145 [15] = test: Induction of apoptosis in human DU145 cells assessed as early apoptotic cells at 1.5 uM measured after 48 hrs by annexinV-FITC/propidium iodide staining based flow cytometry analysis (reference value: 2.34 %); format: functional
DU-145 [16] = test: Induction of apoptosis in human DU145 cells assessed as live cells at 3.5 uM measured after 48 hrs by annexinV-FITC/propidium iodide staining based flow cytometry analysis (reference value: 97.09 %); format: functional
DU-145 [17] = test: Induction of apoptosis in human DU145 cells assessed as necrotic cells at 1.5 uM measured after 48 hrs by annexinV-FITC/propidium iodide staining based flow cytometry analysis (reference value: 0.52 %); format: functional
DU-145 [18] = test: Induction of apoptosis in human DU145 cells assessed as early apoptotic cells at 3.5 uM measured after 48 hrs by annexinV-FITC/propidium iodide staining based flow cytometry analysis (reference value: 2.34 %); format: functional
Tubulin (Homo sapiens) [19] = target: T1, Tubulin (Homo sapiens); test: Inhibition of tubulin […] in human DU145 cells assessed as increase in soluble fraction of tubulin at […] measured after 24 hrs by Western blot analysis; format: cell-based; details: DU-145
DU-145 [20] = test: Induction of apoptosis in human DU145 cells assessed as late apoptotic cells at 5 uM measured after 48 hrs by annexinV-FITC/propidium iodide staining based flow cytometry analysis (reference value: 0.05 %); format: functional
DU-145 [21] = test: Induction of apoptosis in human DU145 cells assessed as necrotic cells at 5 uM measured after 48 hrs by annexinV-FITC/propidium iodide staining based flow cytometry analysis (reference value: 0.52 %); format: functional
DU-145 [22] = test: Induction of apoptosis in human DU145 cells assessed as live cells at 1.5 uM measured after 48 hrs by annexinV-FITC/propidium iodide staining based flow cytometry analysis (reference value: 97.09 %); format: functional
DU-145 [23] = test: Cell cycle arrest in human DU145 cells assessed as accumulation at G0/G1 phase at 3 uM measured after 24 hrs by propidium iodide staining based flow cytometry analysis (reference value: 58.2 %); format: functional
DU-145 [24] = test: Induction of apoptosis in human DU145 cells assessed as necrotic cells at 3.5 uM measured after 48 hrs by annexinV-FITC/propidium iodide staining based flow cytometry analysis (reference value: 0.52 %); format: functional
DU-145 [25] = test: Cell cycle arrest in human DU145 cells assessed as accumulation at G0/G1 phase at 5 uM measured after 24 hrs by propidium iodide staining based flow cytometry analysis (reference value: 58.2 %); format: functional
DU-145 [26] = test: Induction of apoptosis in human DU145 cells assessed as late apoptotic cells at 3.5 uM measured after 48 hrs by annexinV-FITC/propidium iodide staining based flow cytometry analysis (reference value: 0.05 %); format: functional
DU-145 [27] = test: Induction of apoptosis in human DU145 cells assessed as early apoptotic cells at 5 uM measured after 48 hrs by annexinV-FITC/propidium iodide staining based flow cytometry analysis (reference value: 2.34 %); format: functional
[28] = Homo sapiens, HEK293, 48 h, read-out: IC50

Row | IC50 (HeLa) [µM] | IC50 (DU-145 [1]) [µM] | IC50 (A549) [µM] | SMILES | inhibition (HeLa) | inhibition (DU-145 [1]) | inhibition (Homo sapiens) | IC50 [2] [µM] | IC50 (HEK293; [28]) [µM] | inhibition (A549) | also measured
1 | 50.8 | 37.5 | 7.4 | COC1=C(OC)C23C(=C/C1=N\OC(=O)c1c(Cl)cc(Cl)cc1Cl)C[C@H](C)[C@@]2(C)Cc1cc(OC)c(OC)c(OC)c13 (some centres undefined) | Dose-dependent effect | Dose-dependent effect | Dose-dependent effect | 40.7 | 79.8 | Dose-dependent effect | –
2 | 5.5 | 16.6 | 9.02 | COC1=C(OC)C23C(=C/C1=N\OC(=O)c1ccc(F)cc1)C[C@H](C)[C@@]2(C)Cc1cc(OC)c(OC)c(OC)c13 (some centres undefined) | Dose-dependent effect | Dose-dependent effect | Dose-dependent effect | 20.9 | 81.6 | Dose-dependent effect | –
3 | 8.37 | 25 | 8.4 | CCOC(=O)CCC(=O)O/N=C1\C=C2C[C@H](C)[C@@]3(C)Cc4cc(OC)c(OC)c(OC)c4C23C(OC)=C1OC (some centres undefined) | Dose-dependent effect | Dose-dependent effect | Dose-dependent effect | 22.6 | 85.4 | Dose-dependent effect | –
4 | 15.2 | 50.5 | 7.8 | COC1=C(OC)C23C(=C/C1=N\OC(=O)C1CC1)C[C@H](C)[C@@]2(C)Cc1cc(OC)c(OC)c(OC)c13 (some centres undefined) | Dose-dependent effect | Dose-dependent effect | Dose-dependent effect | 60 | 65.9 | Dose-dependent effect | –
5 | 12.9 | 22.9 | 6.9 | CCCCC(=O)O/N=C1\C=C2C[C@H](C)[C@@]3(C)Cc4cc(OC)c(OC)c(OC)c4C23C(OC)=C1OC (some centres undefined) | Dose-dependent effect | Dose-dependent effect | Dose-dependent effect | 14.8 | 112 | Dose-dependent effect | –
6 | 4.23 | 9.6 | 7.8 | COC1=C(OC)C23C(=CC1=O)C[C@H](C)[C@@]2(C)Cc1cc(OC)c(OC)c(OC)c13 (some centres undefined) | Dose-dependent effect | Dose-dependent effect | Dose-dependent effect | 50.5 | 49.7 | Dose-dependent effect | –
7 | 1.94 | 2.54 | – | COc1cccc2c1C(=O)c1c(O)c3c(c(O)c1C2=O)C[C@@](O)(C(=O)CO)C[C@@H]3O[C@H]1C[C@H](N)[C@H](O)[C@H](C)O1 [DOXORUBICIN] | – | – | – | 2.23 | – | – | Activity [3]: 60.97%; Activity (DU-145 [4]): 7.83%; Activity [5]: 1.77%; IC50 (HEK293; hek293): Not Active; Activity [6]: 0.05%; Activity (DU-145 [7]): 46.09%; Activity (DU-145 [8]): 46.08%; Activity (DU-145 [9]): 0%; Activity [10]: 37.21%
8 | 45.3 | 3.42 | 6.5 | CCC(=O)O/N=C1\C=C2C[C@H](C)[C@@]3(C)Cc4cc(OC)c(OC)c(OC)c4C23C(OC)=C1OC (some centres undefined) | Dose-dependent effect | Dose-dependent effect | Dose-dependent effect | 60.5 | 65.1 | Dose-dependent effect | inhibition (Tubulin (Homo sapiens) [11]): Active; Activity (DU-145 [12]): 68.98%; Activity (DU-145 [13]): 66.97%; Activity (DU-145 [14]): 0.96%; Activity (DU-145 [15]): 23.33%; Activity (DU-145 [16]): 68.5%; Activity (DU-145 [17]): 0%; Activity (DU-145 [18]): 27.56%; inhibition (Tubulin (Homo sapiens) [19]): Active; Activity (DU-145 [20]): 1.54%; Activity (DU-145 [21]): 0.04%; Activity (DU-145 [22]): 75.71%; Activity (DU-145 [23]): 66.4%; Activity (DU-145 [24]): 0.07%; Activity (DU-145 [25]): 71.07%; Activity (DU-145 [26]): 3.87%; Activity (DU-145 [27]): 29.44%
9 | 50.1 | 7.55 | 8.52 | COC1=C(OC)C23C(=C/C1=N\O)C[C@H](C)[C@@]2(C)Cc1cc(OC)c(OC)c(OC)c13 (some centres undefined) | Dose-dependent effect | Dose-dependent effect | Dose-dependent effect | 55.9 | 54.8 | Dose-dependent effect | –
10 | 5.06 | 5.38 | 8.5 | COc1cc2c(c(OC)c1OC)-c1c(cc(OC)c(OC)c1OC)C[C@](C)(O)[C@@H](C)C2 [SCHIZANDRIN] | Dose-dependent effect | Dose-dependent effect | Dose-dependent effect | 5.36 | 80.5 | Dose-dependent effect | –
11 | 4.74 | 25.5 | 6.08 | COC1=C(OC)C23C(=C/C1=N\OC(=O)C(C)C)C[C@H](C)[C@@]2(C)Cc1cc(OC)c(OC)c(OC)c13 (some centres undefined) | Dose-dependent effect | Dose-dependent effect | Dose-dependent effect | 15.4 | 80.5 | Dose-dependent effect | –
12 | 7.4 | 20.3 | 5.92 | COC1=C(OC)C23C(=C/C1=N\OC(=O)c1ccc(Br)cc1)C[C@H](C)[C@@]2(C)Cc1cc(OC)c(OC)c(OC)c13 (some centres undefined) | Dose-dependent effect | Dose-dependent effect | Dose-dependent effect | 9.7 | 135 | Dose-dependent effect | –
13 | – | – | – | COC(=O)Nc1nc2cc(C(=O)c3cccs3)ccc2[nH]1 | – | – | – | – | – | – | inhibition (Tubulin (Homo sapiens) [19]): Active
